Results from patent US20200155490A1, “IMMUNOMOUDULATORY AGENTS AND METHODS OF USE THEREOF” (priority 2016, published 2020).
Entries after “also recorded” stand apart in the source; their conditions may differ.

Legend:
[1] = test system: bone-marrow derived macrophages; experiment: Cell viability of bone-marrow derived macrophages; format: cell-based, mouse
Description: Live cells were determined via flow cytometry using a live/dead cell fluorescent dye. Shown are representative data from three independent experiments.
Cells were incubated with FcγR-blocking anti-CD16/32 (clone 93, Biolegend) before staining with antibodies to F4/80 (clone BM8, eBioscience) and CD11b (clone M1/70; BD Pharmingen) together with LIVE/DEAD dye (Invitrogen). Intracellular iNOS was detected with mouse anti-NOS2 (clone C-11, Santa Cruz Biotechnology) followed by incubation with fluorochrome-conjugated anti-mouse IgG (Clone A85-1, BD Pharmingen) using the BD cytofix/cytoperm Kit (BD Biosciences) according to manufacturer's instructions. Cells were acquired on a Canto II flow cytometer (BD Biosciences) and data were analyzed using FlowJo v.9.5.2 software (Tree Star).

[2] = test system: anti-CD3-induced inflammation; experiment: Anti-CD3-induced inflammation in mice (serum IL-17); format: in vivo; settings: 4 mg or 20 mg DI ip, 48 h after anti-CD3, ELISA
Description: FIG. 26A is a plot showing DI-treatment diminished in vivo systemic IL-17 production. Circulating serum IL-17 levels were determined by ELISA 48 h after anti-CD3-induced inflammation in mice treated or not with the indicated doses of DI. Briefly, mice were received intraperitoneal (ip) injections of 4 mg (n=10) or 20 mg (n=5) DI or vehicle (PBS; shown as 0; n=10) 3 h prior (−3 h) to an anti-CD3 injection (given at 0 h ip) and every 20 h thereafter until mice were analyzed at 48 h.

[3] = test system: bone marrow-derived macrophage (BMDM); experiment: RNA-seq transcriptional profiling of LPS-stimulated BMDM; settings: for pro-inflammatory transcripts / inflammatory markers (Nos2, II6, II12b etc.): 0.25 mM 12 h pretreatment, LPS 100 ng/ml 4 h
[4] = test system: mitochondrial ROS in BMDM; experiment: Measurement of mROS (MitoSOX) in BMDM; format: cell-based, mouse; settings: 0.25 mM 12 h, LPS 100 ng/ml; MitoSOX flow cytometry
Description: Cells were incubated with DI (0.25 mM, 12 h) or vehicle and then loaded with 5 μM of the mitochondrial superoxide indicator MitoSOX (Invitrogen) at 37° C. for 30 min in HBSS supplemented with 0.1% BSA. Cells were then rinsed with warm culture medium and LPS treatment was started 1 h later. Cells were harvested and analyzed on a Canto II flow cytometer (Becton-Dickinson).

[5] = test system: myocardial ischemia-reperfusion injury; experiment: Myocardial ischemia-reperfusion model; format: in vivo, mice; settings: for myocardial infarct size: 30 min ischemia, 2 h reperfusion, intravenous infusion during ischemia
Description: In vivo ischemia-reperfusion modeling was performed as previously described. 8 to 10 week-old mice were anesthetized and subjected to an open chest procedure of reversible left anterior descending artery ligation for 30 min and subsequent reperfusion for 2 hours. Saline or DI (4 mg/Kg/min) was infused intravenously for 10 min before and throughout the ischemic period. A cardioplegic solution followed by TTC at 37° C. and then Evans Blue (after reocclusion of the LAD) was injected in a retrograde manner through the aorta in situ. The left ventricle was then sectioned into 5 slices and image analysis was performed with Image J (NIH).

[6] = test system: BMDM infected with S. typhimurium; experiment: In vitro infection of BMDM with Salmonella typhimurium; format: cell-based, mouse
[7] = test system: AIM2-inflammasome in BMDM; experiment: AIM2-inflammasome activation in BMDM (poly dA:dT transfection); format: cell-based, mouse; settings: DI 12 h, 5 h
Description: (§1) The concentration of cytokines in culture supernatants was determined using the following kits according to manufacturer's instructions. DuoSet® kits for mouse IL-1β/IL-1F2, TNF-α and IL-6 (all R&D systems); mouse IL-12 ELISA MAX™ Deluxe Set (BioLegend); mouse IL-18 ELISA kit (MBL). Nitric oxide was quantified using Griess Reagent System (Promega).

[8] = test system: naïve CD4 T cells under Th17 polarizing conditions; experiment: Th17 differentiation of naïve CD4 T cells; format: cell-based, C56BL/6 mice; settings: for frequency of IL-17-producing cells (Th17 differentiation): Th17 polarizing conditions; for frequency of IL-17-producing cells (Th17 differentiation) / cytotoxic effect (frequency of live CD4 T cells): flow cytometry; for cytotoxic effect (frequency of live CD4 T cells): day 4 after Th17 polarization
Description: FIG. 25C is a series of plots showing DI inhibits also the secretion of IL-17 (left) and GM-CSF (right) in the supernatant of CD4 T cells. On day 4 cells were collected, washed, and re-stimulated in equal numbers for each condition with anti-CD3 and anti-CD28. After 24 h supernatants were collected and assayed for IL-17 and GM-CSF by ELISA.

[9] = test system: NLRP3 inflammasome in BMDM; experiment: NLRP3 inflammasome activation in BMDM (LPS priming + ATP, nigericin or MSU); format: cell-based, mouse; settings: for production of IL-18: then ATP 3 mM 45 min; for protein expression of pro-IL-1β: 0.25 mM 12 h
Description: as §1
(§2) BMDM were stimulated as indicated, washed with PBS, lysed in RIPA Lysis Buffer System (Santa Cruz) and boiled in sample loading buffer containing SDS and 100 mM DTT. Proteins were separated by electrophoresis through 4-20% polyacrylamide gradient gels (BioRad). After electrophoretic transfer of proteins onto PVDF membranes, nonspecific binding was blocked by incubation with 5% skim milk and membranes were probed with primary antibodies anti-IL1β (1:1000 dilution; 12507S, CellSignaling), NIrp3 (1:500 dilution; NBP2-12446, Novus), HIF-1α (1:500 dilution; NB100-449, Novus), α-tubulin (1:2000 dilution; 2125S, CellSignaling), ASC (1:1000 dilution; sc-22514-R, Santa Cruz) followed by incubation with secondary antibodies (horseradish peroxidase-conjugated anti-rabbit, 1:10,000 dilution; sc-2030, Santa Cruz) and visualized with Clarity™ western ECL substrate (Biorad).

[10] = test system: neonatal rat cardiac myocytes; experiment: Hypoxia modeling in neonatal rat cardiac myocytes; settings: NRCMs, hypoxia 24 h, DI pretreatment
[11] = test system: IMQ-induced skin inflammation; experiment: Imiquimod (IMQ)-induced psoriasis model; format: in vivo; settings: mouse ear skin, 20 mg DI ip daily, IMQ cream 7 days
Description: IMQ cream (5%) was applied on mouse ear skin for 7 days and skin pathology was assessed on day 8. Mice received 20 mg DI ip. (DI+IMQ) or vehicle ip (PBS; IMQ) was administered one day prior to IMQ application and every day thereafter until day 7. DI group: received 20 mg DI as above but no IMQ; naïve mice received vehicle as above but no IMQ.

[12] = test system: bone marrow-derived macrophage (BMDM); experiment: Activation of BMDM with LPS or LPS+IFN-γ (cytokines, iNOS, HIF-1α); format: cell-based, mouse
Description: Cells were incubated with FcγR-blocking anti-CD16/32 (clone 93, Biolegend) before staining with antibodies to F4/80 (clone BM8, eBioscience) and CD11b (clone M1/70; BD Pharmingen) together with LIVE/DEAD dye (Invitrogen). […] Cells were acquired on a Canto II flow cytometer (BD Biosciences) and data were analyzed using FlowJo v.9.5.2 software (Tree Star).
as §1, §2

unstimulated BMDM = experiment: Extracellular flux analysis (Seahorse); format: cell-based, mouse; settings: 0.25 mM DI 12 h
Description: Extracellular acidification rate (ECAR) and Oxygen Consumption rate (OCR) were measured in real time using Seahorse technology as described previously.

[13] = target: T1, succinate dehydrogenase (Sdh) (Mus musculus, UniProt Q8K2B3); experiment: Sdh activity assay (Complex II Enzyme Activity Microplate Assay); format: biochemical; settings: Sdh purified from BV2 cells or BMDM
T1 construct: Sdh was purified from BV2 cells (a macrophage cell line) or BMDM; endogenous in cells; host or cells: BV2 cells (macrophage cell line) or mouse BMDM; in-well capture with the Abcam Complex II Enzyme Activity Microplate Assay Kit
T1 sequence (Q8K2B3 43-664): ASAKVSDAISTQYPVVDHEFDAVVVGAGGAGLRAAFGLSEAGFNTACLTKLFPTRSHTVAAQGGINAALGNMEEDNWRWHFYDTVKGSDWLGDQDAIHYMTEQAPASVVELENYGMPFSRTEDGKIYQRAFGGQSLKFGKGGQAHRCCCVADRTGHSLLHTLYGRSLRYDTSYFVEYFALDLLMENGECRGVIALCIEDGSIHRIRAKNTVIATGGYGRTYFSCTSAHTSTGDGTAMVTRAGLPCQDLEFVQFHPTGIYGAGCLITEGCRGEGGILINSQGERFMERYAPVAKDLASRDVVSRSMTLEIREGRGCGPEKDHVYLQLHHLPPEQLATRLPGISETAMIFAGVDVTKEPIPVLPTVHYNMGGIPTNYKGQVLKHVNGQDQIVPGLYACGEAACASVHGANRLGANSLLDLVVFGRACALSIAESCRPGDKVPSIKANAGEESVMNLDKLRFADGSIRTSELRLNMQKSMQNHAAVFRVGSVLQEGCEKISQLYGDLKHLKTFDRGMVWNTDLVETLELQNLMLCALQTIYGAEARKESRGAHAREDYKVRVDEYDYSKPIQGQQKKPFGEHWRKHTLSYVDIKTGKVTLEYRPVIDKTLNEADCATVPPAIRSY
T1 sequence (Q9CQA3 31-282 partner): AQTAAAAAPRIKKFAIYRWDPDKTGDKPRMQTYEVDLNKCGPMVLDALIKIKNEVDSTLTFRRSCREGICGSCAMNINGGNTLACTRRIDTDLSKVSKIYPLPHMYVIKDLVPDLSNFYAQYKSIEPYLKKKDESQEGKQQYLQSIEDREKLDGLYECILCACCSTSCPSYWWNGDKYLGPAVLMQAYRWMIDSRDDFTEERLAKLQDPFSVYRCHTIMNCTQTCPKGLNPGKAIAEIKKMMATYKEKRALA
T1 sequence (Q9CZB0 30-169 partner): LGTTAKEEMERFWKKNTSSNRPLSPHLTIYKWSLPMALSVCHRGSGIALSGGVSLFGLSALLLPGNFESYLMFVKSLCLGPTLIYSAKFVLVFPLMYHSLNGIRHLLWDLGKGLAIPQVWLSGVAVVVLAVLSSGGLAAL
T1 sequence (Q9CXV1 57-159 partner): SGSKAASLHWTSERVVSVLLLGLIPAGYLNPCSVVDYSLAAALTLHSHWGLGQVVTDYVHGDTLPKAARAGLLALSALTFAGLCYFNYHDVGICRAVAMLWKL
Description: The test compounds were diluted in activity buffer and added to the phospholipid mixture 5 min before adding the activity solution. Absorbance was measured at 600 nm.

[14] = test system: Mycobacterium tuberculosis (Mtb) H37Rv in BMDM; experiment: Infection of BMDM with Mycobacterium tuberculosis H37Rv; format: cell-based
Description: To address this question, BMMDs were infected with Mycobacterium tuberculosis (Mtb) H37Rv strain (MOI of 1). Three treatment groups were set up: untreated macrophages, macrophages pretreated with interferon, and macrophages pretreated with interferon and then treated with itaconate. The infection was then allowed to proceed for 7 days. On day 7 post infection, serial dilutions of infected BMDM homogenates were plated on 7H11 agar plates and colony forming unit (CFU) determined.

Salmonella infection = Salmonella infection in vivo; settings: treated vs untreated mice; i.v. administration
[15] = BMDM pre-treated with 0.25 mM DI 12 h, infected with live S. typhimurium
[16] = day 4 cells re-stimulated with anti-CD3 and anti-CD28, 24 h, ELISA
[17] = 12 h pretreatment, LPS 100 ng/ml 4 h
[18] = Western blot, LPS 4 h, ATP 45 min
[19] = Western blot, DI 0.25 mM 12 h, LPS 4 h, ATP 45 min
[20] = BMDM pretreated with DI (12 h; 0.25 mM), LPS 24 h

C=C(CC(=O)OC)C(=O)OC [DI, dimethyl itaconate]
concentration up to which not toxic [1]: up to 0.5 mM | in vivo systemic IL-17 production (circulating serum IL-17) [2]: diminished | pro-inflammatory transcripts / inflammatory markers (Nos2, II6, II12b etc.) [3]: down-regulation | expression of LPS-regulated genes involved in inflammasome function (II1b, II18, P2rx7, Casp1, Pycard) ([3]; DI 0.25 mM 12 h, LPS 4 h): modulated | LPS-induced upregulation of mROS [4]: impaired | area-at-risk ([5]; DI vs saline group): similar | myocardial infarct size ([5]; mice): markedly reduced | reduction in infarct size ([5]; mice, DI 4 mg/Kg/min i.v. 10 min before and throughout ischemia): 42% | TNF-α levels [6, 15]: only marginally affected | production of IL-1β [6, 15]: virtually abrogated | production of IL-6 [6, 15]: virtually abrogated | production of nitric oxide (NO) [6, 15]: virtually abrogated | number of intracellular bacteria ([6]; DI-treated vs control BMDM, S. typhimurium): comparable | IL-1β production following AIM-2-dependent inflammasome activation [7]: impaired | frequency of IL-17-producing cells (Th17 differentiation) [8]: dose-dependently inhibits | cytotoxic effect (frequency of live CD4 T cells) [8]: moderate dose-dependent cytotoxic effect | secretion of GM-CSF [8, 16]: inhibits | secretion of IL-17 [8, 16]: inhibits | production of IL-18 [9, 17]: potently inhibited | production of mature IL-1β ([9]; 12 h pretreatment, LPS 100 ng/ml 4 h, then ATP, nigericin or MSU): potently inhibited | inflammasome-induced cytotoxicity ([9]; DI 0.25 mM 12 h, LPS 4 h, ATP 3 mM 45 min, live/dead dye): only moderately | protein expression of pro-IL-1β [9, 18]: decreased | protein expression of ASC [9, 19]: decreased | protein expression of NLRP3 [9, 19]: decreased | hypoxia-induced cell death [10]: dose-dependent protection | hypoxia-induced increase in ROS generation [10]: attenuated | dermal edema ([11]; H&E day 8): prevents dermal edema | IL-17 associated pathology ([11]; assessed day 8): limits IL-17 associated pathology | IL-12p70 secretion ([12]; BMDM pretreated with DI 12 h, then LPS and IFN-γ 24 h): suppressed | IL-6 secretion [12, 20]: suppressed | TNF-α production [12, 20]: remained unchanged | iNOS protein expression ([12]; BMDM pretreated with DI (12 h; 0.25 mM), then LPS and IFN-γ 24 h, flow cytometry): suppressed | extracellular acidification rate (ECAR) (unstimulated BMDM): increased

COC(=O)CC(=O)OC [dimethyl malonate, reference compound]
production of IL-18 [9, 17]: inhibited

C=C(CC(=O)O)C(=O)O [itaconate, itaconic acid]
pro-inflammatory transcripts / inflammatory markers (Nos2, II6, II12b etc.) [3]: significantly decreased | activity of purified Sdh [13]: blocked the activity of Sdh in a dose-dependent manner | LPS-induced upregulation of mROS [4]: impaired | myocardial infarct size ([5]; mice): reduces infarct size | frequency of IL-17-producing cells (Th17 differentiation) [8]: dose-dependently inhibits | inhibition of Th17 compared with structurally similar dicarboxylic acids ([8]; all acids at 5 mM, day 3 post polarization): structure specific | cytotoxic effect (frequency of live CD4 T cells) [8]: not cytotoxic | protein expression of pro-IL-1β [9, 18]: significantly decreased | bacterial burden in the cells (CFU) ([14]; BMDM pretreated with interferon, Mtb MOI of 1, day 7 post infection): increased | II1b levels in the supernatants ([14]; Mtb-infected BMDM, data not shown): decreased | mortality from Salmonella infection (Salmonella infection): succumb to Salmonella infection faster; also recorded: significantly accelerates mortality

O=C(O)CC(=O)O [malonate, reference compound]
activity of purified Sdh [13]: blocked the activity of Sdh in a dose-dependent manner | myocardial infarct size ([5]; mice): reduces infarct size
